{
  "source": "patent US5288723A",
  "about": "“A composition and a method of using veratridine and epinephrine as a local anesthetic” (priority 1991, dated 1994)",
  "key": {"[1]": {"tested_on": "A-fibers of rabbit vagus nerve", "test": "Sucrose-gap recording in the veratrinized region, A-fibers", "set-up": "species or system New Zealand white rabbit", "protocol": "Adult male New Zealand white rabbits (3±0.5 kg) were pretreated intramuscularly with a mixture of ketamine (200 mg), xylazine (20 mg) and atropine (0.4 mg) for sedation. Ten minutes after this treatment, the animals were anesthetized with diethyl ether. After cessation of respiration, a longitudinal skin incision was made, and the cervical portion of both vagus nerves was dissected. The vagus nerves were temporarily stored at room temperature (22° C.) in a beaker containing modified HEPES Liley (HL) solution stirred constantly by aeration with a mixture of 95% oxygen and 5% carbon dioxide. […]\nVTD free base (no. V-5754, lot 58F-7828, Sigma, St. Louis, Mo.) was stored in a desiccator below 0° C. and was used to prepare a 2 mM stock solution in dimethyl sulfoxide [DMSO], Fisher Scientific, lot 861316), which also was stored at below 0° C. […] The maximum equivalent content of DMSO is 0.5%, and in three control experiments we detected no change in electrophysiologic behavior with 1% DMSO.\nNerves were desheathed and mounted in an acrylic sucrose-gap chamber (FIG. 2C). […] In contrast to the extracellular chamber described above, which measured APc in a drug-free segment after they had propagated through a VTD solution, the sucrose gap measured the behavior of the nerve membrane directly exposed to drug, the \"veratrinized\" nerve. […]"}, "[2]": {"conditions": "on average; cited from earlier work"}, "[3]": {"conditions": "aqueous slat solutions; limited to approximately; cited from earlier work"}, "[4]": {"test": "Toxic signs (salivation) in rats after sciatic nerve injection", "format": "in vivo, Male Sprague-Dawley rats", "conditions": "for fraction salivating: 0.1 ml", "protocol": "Male Sprague-Dawley rats (200-250 g) were divided into 4 groups of 10 each. 0.1 ml of VTD alone at 0.2, 0.5 or 0.7 mM or vehicle (saline) was injected at the depression between the femoral head and the hip. The same animals were injected with VTD with epinephrine (EPI, 1:200,000) one week later, using the previously uninjected leg. Motor and sensory functions were rated by the respective monitoring of toe curling and/or foot dragging, and by testing the nocifensive withdrawal reflex to pinch of the foot pad of the injected hindlimb. Saline alone affected neither function."}, "[5]": {"tested_on": "A-fibers of rabbit vagus nerve", "test": "Extracellular recording of compound action potentials (APc), desheathed vagus nerve, A-fibers", "set-up": "species or system New Zealand white rabbit", "conditions": "for inhibition at 0.5 µM / activity at 0.5 µM: Oryctolagus cuniculus, 0.5 μM VTD; for inhibition at 0.5 µM: 1.25 h, mean ± SEM; for activity at 0.5 µM: read-out: Amplitude of single APc elevation relative to amplitude at beginning of VTD exposure", "protocol": "Adult male New Zealand white rabbits (3±0.5 kg) were pretreated intramuscularly with a mixture of ketamine (200 mg), xylazine (20 mg) and atropine (0.4 mg) for sedation. Ten minutes after this treatment, the animals were anesthetized with diethyl ether. After cessation of respiration, a longitudinal skin incision was made, and the cervical portion of both vagus nerves was dissected. The vagus nerves were temporarily stored at room temperature (22° C.) in a beaker containing modified HEPES Liley (HL) solution stirred constantly by aeration with a mixture of 95% oxygen and 5% carbon dioxide.\nThe modified HL solution used for bathing the nerve and subsequent drug perfusion consisted of (in mM): NaCl, 118.0; KCl, 5.0; CaCl2 2H2 0, 2.0; MgCl2 6H2 0, 1.0; α-D(+)-glucose, 11.0; NaHC03, 25.0; and N-2-hydroxy-ethylpiperazine-N-2-ethanesulfonic acid (HEPES) buffer, 5.0 mM. The pH was adjusted to 7.4±0.05 by addition of 1 N NaOH. The perfusion solution was bubbled with a gas mixture of 95% oxygen and 5% carbon dioxide at a vigorous rate just before flowing onto the nerve. The pH was stabilized by the HEPES buffer and maintained at 7.4.\nVTD free base (no. V-5754, lot 58F-7828, Sigma, St. Louis, Mo.) was stored in a desiccator below 0° C. and was used to prepare a 2 mM stock solution in dimethyl sulfoxide [DMSO], Fisher Scientific, lot 861316), which also was stored at below 0° C. VTD, a steroidal alkaloid (FIG. 2A) that is produced by certain lilies, has a solubility limited to approximately 10^-3 M in aqueous slat solutions [Kupchan and By, \"The Veratrum Group,\" in Alkaloids, Vol. 10, Manske, R.H.F. (ed.), New York, Academic Press (1968), pp. 193-285]. The stock VTD solution was diluted to final concentrations of 0.2-10 μM by the addition of HL. The maximum equivalent content of DMSO is 0.5%, and in three control experiments we detected no change in electrophysiologic behavior with 1% DMSO.\nThe nerves were cleaned and desheathed by microdissection before mounting in an airtight chamber (FIG. 2B) [Gissen et al., Anesthesiology 53:467-474 (1980)]. Petroleum jelly (White Petrolatum, Denison Laboratories) seals separated a central, 11-mm length of the nerve from the lateral pools, used for stimulating and recording with electrodes made of platinum wire. The central section of the chamber (volume 0.25 ml) was perfused with HL solution at 0.5 ml.min.^-1. The lateral pools containing the moistened ends of the nerves adsorbed to the electrodes were filled with paraffin oil. The APc s were propagated over 21 mm, from the stimulating to the recording electrodes, with the proximal recording electrodc located 4.5 mm from the edge of the central, drug exposure chamber. Thus, measured APc s were conducted in nerve exposed to drug for half of the conduction pathway, and had been conducting through drug-free medium over a distance containing at least two or three nodes of Ranvier (in the fastest-conducting fibers), before reaching the recording electrodes.\nThe signal from the nerve was amplified 50 times (model AK 475 operational amplifier, Metametrics, Carlisle, Mass.) and passed to the oscilloscope preamplifiers (model 5A 22N, Tektronix). The preparation was not considered acceptable unless the APc signals from the nerve exceeded 1.5 mV for A-fibers, 0.5 mV for B-fibers, and 0.3 mV for C-fibers.\nEach nerve was exposed to only one VTD concentration, and each concentration was tested in four or five separate nerves, except in tie sheathed nerves, for which only two nerves were used. The temperature was 20°-22° C.\nThe standard protocol used for testing the action of VTD was to record the APc elevations in control HL solution for 30-60 min. before adding VTD; for 60-75 min. during VTD application; and for 60-75 min. after replacement with VTD-free HL. […]"}},
  "note": "Entries after “also recorded” stand apart in the source; their conditions may differ. Where two headings read alike, the source gives them in different places.",
  "data": [
    {"smiles": "COc1ccc(C(=O)OC2CCC3(C)C4CCC5C6(O)CC(O)C7(O)C(CN8CC(C)CCC8C7(C)O)C6(O)CC53OC24O)cc1OC", "note": "(centres unmarked) [VTD, veratridine]", "values": [
      {"measurement": "A-fiber deflection between beginning and end of the train", "setting": "[1]; 0.2 μM VTD, 0.5 Hz stimulation", "value": "unchanged"},
      {"measurement": "A-fiber elevation after addition of VTD", "setting": "[1]; 0.5 μm VTD", "value": "unchanged"},
      {"measurement": "Fraction of drug molecules ionized", "setting": "[2]", "value": "more than 90%"},
      {"measurement": "Solubility", "setting": "[3]", "value": "approximately 10^-3 M"},
      {"measurement": "Toxic signs, including profuse salivation", "setting": "[4]; 0.5 and 0.7 mM VTD alone", "value": "14/20"},
      {"measurement": "fraction salivating", "setting": "[4]; [VTD] 0.2 mM", "value": "0/10"},
      {"measurement": "fraction salivating", "setting": "[4]; [VTD] 0.5 mM", "value": "4/10"},
      {"measurement": "fraction salivating", "setting": "[4]; [VTD] 0.7 mM", "value": "10/10"},
      {"measurement": "Response of A-fibers during repetitive stimulation compared with drug-free solutions", "setting": "[5]; 2 μM VTD, 100-Hz stimulation", "value": "almost identical to that in drug-free solutions before and after VTD exposure"},
      {"measurement": "Single-stimulus APc after VTD compared with no-VTD controls", "setting": "[5]; A-fibers, 0.5 μM, 60 min. in VTD, P>0.05", "value": "no significant difference"},
      {"measurement": "Decline of APc elevation at the second stimulation", "setting": "[5]; A-fibers, 2 μM VTD, 100 Hz, normal refractory behavior", "value": "about 15%"},
      {"measurement": "Reversal of use-dependent depression by washing", "setting": "[5]; A-fibers, VTD-free HL wash", "value": "did not reverse"},
      {"measurement": "inhibition at 0.5 µM", "setting": "[5]; A-fibers, 100 Hz, after 75 min. in VTD, P < 0.001 vs control, read-out: Percent inhibition of the tenth APc in a train compared to the first, VTD", "value": "25.3 ± 3.5", "unit": "%"},
      {"measurement": "inhibition at 0.5 µM", "setting": "[5]; A-fibers, 100 Hz, after 75 min. of wash, read-out: Percent inhibition of the tenth APc in a train compared to the first, HL (Wash)", "value": "27 ± 2.8", "unit": "%"},
      {"measurement": "activity at 0.5 µM", "setting": "[5]; A-fibers, during VTD exposure", "value": "117 ± 7", "unit": "%"},
      {"measurement": "activity at 0.5 µM", "setting": "[5]; A-fibers, wash period", "value": "123 ± 14", "unit": "%"},
      {"measurement": "Use-dependent reduction of APc by VTD, A-fibers", "setting": "[5]; up to 2 μM", "value": "modified little; also recorded: inconsequential for A-fibers"}
    ]}
  ]
}
